The source of these data is patent publication US8710038B2, “Pyrazole kinase modulators and methods of use” (Exelixis, Inc., priority 2004, dated 2014).

Some results are limits rather than exact numbers.

The target in assay [1] is c-Kit (Homo sapiens, UniProt P10721). In words: c-Kit biochemical assay (AlphaScreen). In a few lines:
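Kinase, compound, ATP and biotinylated poly(Glu,Tyr) 4:1 reacted 1 hr at ambient temperature; quenched with EDTA buffer (pH 7.4) containing streptavidin donor and anti-phosphotyrosine PY100 acceptor beads, incubated 16 hr, then AlphaScreen signal read to give IC50.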

Assay [2] has as its target T1, flt-3 (Homo sapiens, UniProt P36888).
T1 construct: baculovirus expressed human Flt-3 kinase domain R571-S993
T1 sequence (P36888 571-993): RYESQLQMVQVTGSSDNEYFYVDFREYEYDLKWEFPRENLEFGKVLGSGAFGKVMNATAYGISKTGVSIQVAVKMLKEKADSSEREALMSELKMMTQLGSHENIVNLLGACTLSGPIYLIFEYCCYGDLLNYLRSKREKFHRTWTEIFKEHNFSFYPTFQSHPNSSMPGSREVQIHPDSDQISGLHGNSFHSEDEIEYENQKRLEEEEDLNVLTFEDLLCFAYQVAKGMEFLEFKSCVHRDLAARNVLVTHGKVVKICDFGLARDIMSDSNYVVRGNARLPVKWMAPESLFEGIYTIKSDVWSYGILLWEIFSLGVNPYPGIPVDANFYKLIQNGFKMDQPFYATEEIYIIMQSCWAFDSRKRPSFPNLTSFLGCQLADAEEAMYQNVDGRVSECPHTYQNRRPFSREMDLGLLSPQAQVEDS
In words: flt-3 Luciferase-Coupled Chemiluminescent Kinase assay (LCCA). Format: biochemical. Summed up:
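Baculovirus-expressed human Flt-3 kinase domain (R571-S993, 5 nM) was reacted with 5 μM ATP and 3 μM poly-EY in Tris pH 7.5 buffer with MgCl2/MnCl2 for 3 h at ambient temperature. Remaining ATP was read by luciferase-luciferin chemiluminescence, with ATP consumption standardized to 25-45%, for IC50.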

In assay [3] the target is T2, EphB4 (Homo sapiens, UniProt P54760).
T2 sequence (P54760 16-987): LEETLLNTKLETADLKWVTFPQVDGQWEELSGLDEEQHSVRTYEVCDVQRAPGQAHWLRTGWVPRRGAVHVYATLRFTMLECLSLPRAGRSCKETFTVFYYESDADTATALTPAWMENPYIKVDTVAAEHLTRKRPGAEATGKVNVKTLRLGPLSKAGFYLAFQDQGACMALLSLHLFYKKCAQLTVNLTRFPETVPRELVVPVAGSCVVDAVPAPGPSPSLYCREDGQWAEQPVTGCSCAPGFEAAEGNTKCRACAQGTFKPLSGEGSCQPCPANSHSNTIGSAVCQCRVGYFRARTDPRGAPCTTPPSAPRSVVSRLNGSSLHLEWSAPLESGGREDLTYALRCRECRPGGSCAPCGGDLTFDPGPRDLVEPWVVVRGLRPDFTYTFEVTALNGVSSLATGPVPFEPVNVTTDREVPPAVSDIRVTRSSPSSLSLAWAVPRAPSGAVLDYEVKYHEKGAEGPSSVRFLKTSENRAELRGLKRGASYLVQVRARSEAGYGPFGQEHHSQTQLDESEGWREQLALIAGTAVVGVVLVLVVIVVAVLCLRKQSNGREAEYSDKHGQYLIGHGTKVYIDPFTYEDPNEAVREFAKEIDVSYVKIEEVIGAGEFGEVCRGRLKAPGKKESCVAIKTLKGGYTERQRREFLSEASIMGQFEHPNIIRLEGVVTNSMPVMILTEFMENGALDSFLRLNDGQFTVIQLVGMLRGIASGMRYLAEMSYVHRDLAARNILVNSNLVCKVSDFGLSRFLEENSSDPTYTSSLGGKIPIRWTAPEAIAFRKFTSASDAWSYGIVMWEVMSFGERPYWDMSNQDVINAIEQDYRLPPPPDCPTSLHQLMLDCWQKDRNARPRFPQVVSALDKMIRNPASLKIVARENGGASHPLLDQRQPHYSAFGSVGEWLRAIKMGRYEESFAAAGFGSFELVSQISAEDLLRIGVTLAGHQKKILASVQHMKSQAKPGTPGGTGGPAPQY
Put plainly: EphB4 kinase inhibition assay. Format: biochemical. Summed up:
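ATP near each kinase's KM; 10-point dose-response fitted to a four-parameter equation for IC50. Formats: γ33P-ATP transfer to plate-coated substrate (1.5-2.5 h, ambient, scintillation), luciferase-coupled ATP-consumption read-out (2-4 h, 25-45% ATP consumed), or AlphaScreen with biotinylated poly(Glu,Tyr) 4:1 (1 h).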

The target in assay [4] is EGFR (Homo sapiens, UniProt P00533). In words: EGFR kinase inhibition assay. Format: biochemical.
Chain of EGFR (P00533 25-1210, species assumed): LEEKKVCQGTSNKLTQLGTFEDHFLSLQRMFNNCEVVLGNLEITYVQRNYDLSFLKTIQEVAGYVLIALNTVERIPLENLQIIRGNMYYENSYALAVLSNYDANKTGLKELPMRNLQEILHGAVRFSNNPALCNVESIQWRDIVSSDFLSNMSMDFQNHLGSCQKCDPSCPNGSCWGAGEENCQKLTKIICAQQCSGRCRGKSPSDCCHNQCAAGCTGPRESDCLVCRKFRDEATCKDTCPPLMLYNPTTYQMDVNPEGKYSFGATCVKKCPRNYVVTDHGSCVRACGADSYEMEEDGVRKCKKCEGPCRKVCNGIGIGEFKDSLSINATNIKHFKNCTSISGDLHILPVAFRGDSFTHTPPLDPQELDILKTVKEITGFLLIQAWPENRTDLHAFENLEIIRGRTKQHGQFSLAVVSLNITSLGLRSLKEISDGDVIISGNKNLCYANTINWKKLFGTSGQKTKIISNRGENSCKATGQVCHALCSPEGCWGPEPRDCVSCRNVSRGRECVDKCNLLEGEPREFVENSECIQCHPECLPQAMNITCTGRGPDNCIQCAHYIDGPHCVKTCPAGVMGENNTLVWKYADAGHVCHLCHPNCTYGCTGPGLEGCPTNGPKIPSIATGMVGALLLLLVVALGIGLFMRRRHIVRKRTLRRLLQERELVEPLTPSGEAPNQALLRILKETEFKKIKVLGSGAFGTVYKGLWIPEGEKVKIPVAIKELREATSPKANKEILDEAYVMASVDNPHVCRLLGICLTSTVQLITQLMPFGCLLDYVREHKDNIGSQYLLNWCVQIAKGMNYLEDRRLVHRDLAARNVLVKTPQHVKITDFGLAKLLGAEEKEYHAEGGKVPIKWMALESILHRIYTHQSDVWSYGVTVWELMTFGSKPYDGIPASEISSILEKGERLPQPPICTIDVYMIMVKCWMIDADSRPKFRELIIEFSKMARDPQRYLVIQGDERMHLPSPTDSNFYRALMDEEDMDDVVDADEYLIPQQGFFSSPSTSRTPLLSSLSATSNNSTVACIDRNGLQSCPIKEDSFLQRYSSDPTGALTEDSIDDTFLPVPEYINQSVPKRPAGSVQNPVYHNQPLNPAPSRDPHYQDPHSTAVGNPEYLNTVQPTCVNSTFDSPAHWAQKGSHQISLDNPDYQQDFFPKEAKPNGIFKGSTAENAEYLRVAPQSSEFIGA

Chain of c-Kit (P10721 26-976): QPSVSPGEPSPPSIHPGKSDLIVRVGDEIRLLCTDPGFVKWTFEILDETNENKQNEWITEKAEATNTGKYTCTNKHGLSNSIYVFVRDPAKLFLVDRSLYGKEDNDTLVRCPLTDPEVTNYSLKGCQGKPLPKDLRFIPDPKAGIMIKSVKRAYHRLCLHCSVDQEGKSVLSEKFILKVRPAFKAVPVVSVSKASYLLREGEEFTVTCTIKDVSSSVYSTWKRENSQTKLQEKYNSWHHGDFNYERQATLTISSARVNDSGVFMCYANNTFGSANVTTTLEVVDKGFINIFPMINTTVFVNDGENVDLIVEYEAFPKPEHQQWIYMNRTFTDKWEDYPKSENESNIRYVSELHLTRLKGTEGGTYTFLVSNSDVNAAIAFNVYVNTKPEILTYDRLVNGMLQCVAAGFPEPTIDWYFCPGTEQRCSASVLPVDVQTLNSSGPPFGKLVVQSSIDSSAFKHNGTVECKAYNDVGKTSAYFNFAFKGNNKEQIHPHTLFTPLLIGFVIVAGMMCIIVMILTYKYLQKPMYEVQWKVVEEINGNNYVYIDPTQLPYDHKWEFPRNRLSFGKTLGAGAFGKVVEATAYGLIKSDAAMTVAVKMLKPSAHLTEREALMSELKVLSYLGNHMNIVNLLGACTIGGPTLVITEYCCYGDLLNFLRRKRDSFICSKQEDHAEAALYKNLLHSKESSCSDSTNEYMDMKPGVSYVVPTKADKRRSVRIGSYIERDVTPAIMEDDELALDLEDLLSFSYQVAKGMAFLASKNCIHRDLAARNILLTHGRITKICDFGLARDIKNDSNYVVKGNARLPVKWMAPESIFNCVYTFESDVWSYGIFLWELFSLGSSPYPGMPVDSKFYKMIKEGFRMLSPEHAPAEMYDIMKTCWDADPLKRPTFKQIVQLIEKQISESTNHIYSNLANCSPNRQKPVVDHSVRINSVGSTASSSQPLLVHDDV

In the case of `CN1CCN(c2ccc3[nH]c(-c4cc(-c5ccc(NC(=O)Nc6ccccc6F)cc5)[nH]n4)nc3c2)CC1` [Entry 35, N-(2-fluorophenyl)-N′-(4-{3-[5-(4-methylpiperazin-1-yl)-1H-benzimidazol-2-yl]-1H-pyrazol-5-yl}phenyl)urea], the concentration for half-maximal inhibition (IC50) (usually the concentration needed to halve the response being measured) was below 50 nM in assay [1], below 50 nM in assay [2], above 5000 nM in assay [3] and above 5000 nM in assay [4].

On to `Oc1ccc(/C=C/c2cc(/C=C/c3ccccc3)[nH]n2)cc1` [Entry 36, 4-((E)-2-{5-[(E)-2-phenylethenyl]-1H-pyrazol-3-yl}ethenyl)phenol], for which the IC50 is below 50 nM in assay [1], below 50 nM in assay [2], above 5000 nM in assay [3] and above 5000 nM in assay [4].

Regarding `COc1cc(/C=C/c2cc(/C=C/c3ccccc3)[nH]n2)ccc1O` [Entry 37, 2-(methyloxy)-4-((E)-2-{5-[(E)-2-phenylethenyl]-1H-pyrazol-3-yl}ethenyl)phenol], the half-maximal inhibitory concentration (IC50) in assay [1] was below 50 nM; in assay [2], below 50 nM; in assay [3] it was 500 to 5000 nM; in assay [4], above 5000 nM.

As to `CN1CCN(c2ccc3[nH]c(-c4cc(-c5ccc(NC(=O)Nc6ccccc6)cc5)[nH]n4)nc3c2)CC1` [Entry 39, N-(4-{3-[5-(4-methylpiperazin-1-yl)-1H-benzimidazol-2-yl]-1H-pyrazol-5-yl}phenyl)-N′-phenylurea], the half-maximal inhibitory concentration (IC50) is 50 to 500 nM in assay [1], below 50 nM in assay [2], above 5000 nM in assay [3] and above 5000 nM in assay [4].

For the molecule `CN1CCN(c2ccc(-c3cc(-c4ccc(NC(=O)Nc5ccc(F)cc5F)cc4)[nH]n3)cc2)CC1` [Entry 41, N-(2,4-difluorophenyl)-N′-(4-{3-[4-(4-methylpiperazin-1-yl)phenyl]-1H-pyrazol-5-yl}phenyl)urea], the IC50 in assay [1] was 50 to 500 nM; in assay [2] it was below 50 nM; in assay [3] it was above 5000 nM; in assay [4] it was above 5000 nM.

Take `CN1CCN(c2ccc(-c3cc(-c4ccc(NC(=O)Nc5ccc6c(c5)OCCO6)cc4)n[nH]3)cc2)CC1` [Entry 42, N-(2,3-dihydro-1,4-benzodioxin-6-yl)-N′-(4-{5-[4-(4-methylpiperazin-1-yl)phenyl]-1H-pyrazol-3-yl}phenyl)urea]: the IC50 is 50 to 500 nM in assay [1], below 50 nM in assay [2], above 5000 nM in assay [3] and above 5000 nM in assay [4].

On to `COc1cc(/C=C/c2cc(/C=C/c3ccc(F)cc3)n[nH]2)ccc1O` [Entry 44, 4-((E)-2-{3-[(E)-2-(4-fluorophenyl)ethenyl]-1H-pyrazol-5-yl}ethenyl)-2-(methyloxy)phenol], for which the IC50 in assay [1] was 50 to 500 nM; in assay [2], below 50 nM; in assay [3], above 5000 nM; in assay [4], above 5000 nM.

Regarding `Oc1ccc(/C=C/c2cc(-c3cc4ccccc4o3)n[nH]2)cc1` [Entry 45, 4-{(E)-2-[3-(1-benzofuran-2-yl)-1H-pyrazol-5-yl]ethenyl}phenol], the IC50 is 50 to 500 nM in assay [1], 50 to 500 nM in assay [2], above 5000 nM in assay [3] and above 5000 nM in assay [4].

For the molecule `CN1CCN(c2ccc(-c3cc(-c4ccc(NC(=O)C(=O)NCCc5ccccc5)cc4)[nH]n3)cc2)CC1` [Entry 46, N-(4-{3-[4-(4-methylpiperazin-1-yl)phenyl]-1H-pyrazol-5-yl}phenyl)-N′-(2-phenylethyl)ethanediamide], the IC50 is 50 to 500 nM in assay [1], above 5000 nM in assay [2], 500 to 5000 nM in assay [3] and above 5000 nM in assay [4].

Take `Oc1ccc(/C=C/c2cc(-c3nc4ccccc4[nH]3)n[nH]2)cc1` [Entry 47, 4-{(E)-2-[3-(1H-benzimidazol-2-yl)-1H-pyrazol-5-yl]ethenyl}phenol]: the 50% inhibitory concentration (IC50) was 50 to 500 nM in assay [1], below 50 nM in assay [2], 500 to 5000 nM in assay [3] and above 5000 nM in assay [4].

Consider `COc1cc(/C=C/c2cc(/C=C/c3ccc(Cl)cc3)n[nH]2)ccc1O` [Entry 48, 4-((E)-2-{3-[(E)-2-(4-chlorophenyl)ethenyl]-1H-pyrazol-5-yl}ethenyl)-2-(methyloxy)phenol], for which the IC50 in assay [1] is 50 to 500 nM; in assay [2], below 50 nM; in assay [3], above 5000 nM; in assay [4] it was above 5000 nM.

As to `Oc1ccc(/C=C/c2cc(-c3cc4ccccc4s3)n[nH]2)cc1` [Entry 49, 4-{(E)-2-[3-(1-benzothien-2-yl)-1H-pyrazol-5-yl]ethenyl}phenol], the IC50 in assay [1] was 50 to 500 nM; in assay [2], 50 to 500 nM; in assay [3], above 5000 nM; in assay [4], above 5000 nM.

In the case of `O=C(Nc1ccc(-c2cc(-c3ccccc3)n[nH]2)cc1)Nc1ccc(Cl)c(C(F)(F)F)c1` [Entry 50, N-[4-chloro-3-(trifluoromethyl)phenyl]-N′-[4-(3-phenyl-1H-pyrazol-5-yl)phenyl]urea], the half-inhibitory concentration (IC50) is 50 to 500 nM in assay [1], 50 to 500 nM in assay [2], above 5000 nM in assay [3] and above 5000 nM in assay [4].

`CN1CCN(c2ccc(-c3cc(/C=C/c4ccc(O)cc4)[nH]n3)cc2)CC1` [Entry 51, 4-((E)-2-{3-[4-(4-methylpiperazin-1-yl)phenyl]-1H-pyrazol-5-yl}ethenyl)phenol]: the IC50 in assay [1] is 50 to 500 nM; in assay [2], below 50 nM; in assay [3], above 5000 nM; in assay [4] it was above 5000 nM.

On to `Cc1ccc(F)cc1NC(=O)Nc1ccc(-c2cc(-c3ccc(N4CCN(C)CC4)cc3)[nH]n2)cc1` [Entry 53, N-(5-fluoro-2-methylphenyl)-N′-(4-{5-[4-(4-methylpiperazin-1-yl)phenyl]-1H-pyrazol-3-yl}phenyl)urea], for which the half-inhibitory concentration (IC50) was 50 to 500 nM in assay [1], 50 to 500 nM in assay [2], above 5000 nM in assay [3] and above 5000 nM in assay [4].

Regarding `Oc1ccc(/C=C/c2cc(-c3ccccc3)n[nH]2)cc1` [Entry 54, 4-[(E)-2-(3-phenyl-1H-pyrazol-5-yl)ethenyl]phenol], the IC50 is 50 to 500 nM in assay [1], below 50 nM in assay [2], above 5000 nM in assay [3] and above 5000 nM in assay [4].

For the molecule `COc1cc(/C=C/c2cc(-c3ccccc3)[nH]n2)ccc1O` [Entry 55, 2-(methyloxy)-4-[(E)-2-(5-phenyl-1H-pyrazol-3-yl)ethenyl]phenol], the IC50 in assay [1] was 50 to 500 nM; in assay [2], 50 to 500 nM; in assay [3], above 5000 nM; in assay [4], above 5000 nM.

As to `Oc1ccc(/C=C/c2cc(-c3ccc4ccccc4c3)[nH]n2)cc1` [Entry 56, 4-[(E)-2-(5-naphthalen-2-yl-1H-pyrazol-3-yl)ethenyl]phenol], the IC50 in assay [1] is 50 to 500 nM; in assay [2], 50 to 500 nM; in assay [3], above 5000 nM; in assay [4], above 5000 nM.

For the molecule `Oc1ccc(/C=C/c2cc(-c3ccccc3F)[nH]n2)cc1` [Entry 57, 4-{(E)-2-[5-(2-fluorophenyl)-1H-pyrazol-3-yl]ethenyl}phenol], the IC50 in assay [1] is 50 to 500 nM; in assay [2], 50 to 500 nM; in assay [3], above 5000 nM; in assay [4], above 5000 nM.
